From US8835644B2, “Broad spectrum benzothiophene-nitrothiazolide and other antimicrobials” (University of Virginia Patent Foundation, priority 2009, dated 2014)
In brackets after ≈: the same amount, converted by molar mass. Read-outs that look alike come from different tables or passages of the source.

How the values were obtained:
S. epidermidis 9142 = test: Catheter adherence model; format: cell-based, Staphylococcus epidermidis; details: 24 h, dose dependent, within the IC50 range
Procedure: An overnight culture of S. epidermidis 9142 was used to inoculate fresh TSB medium to a final OD600 of 0.01 in a volume of 3 ml in 15 ml screw capped tubes. Sterile sheets of polyurethane were divided into 1 cm square pieces and placed into tubes containing different concentrations of NTZ or controls containing DMSO. The tubes were incubated for 24 h with shaking. Each catheter portion was washed 3 times with sterile PBS, suspended in 4 ml sterile PBS and sonicated for 10 min in a sonic water bath. 10 μl of the sonicated fluid was diluted in fresh PBS and plated onto TSA plates and incubated at 37° C. overnight. Bacteria were enumerated (triplicate plates) and the mean and standard deviation were determined and reported as CFU/ml. Viability effects were corrected for by plating the supernatants from the 3 ml experiment for total bacterial counts.

MRSA = test: MIC testing by broth dilution, MRSA; format: cell-based, Staphylococcus aureus
In short: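 Values are broth-dilution MICs, defined as the well showing no growth on visual reading after 24 h; the tested range was 32 to 0.06 μg/ml, in organism-specific media (LB, Trypticase Soy, Brain Heart Infusion). The C. difficile entries come instead from anaerobic Kirby-Bauer disk zones, normalised to NTZ.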

S. epidermidis = test: Aerobic growth of S. epidermidis in shaken TSB flasks; format: cell-based, Staphylococcus epidermidis
Procedure: Minimal inhibitory concentration testing of NTZ was done in sterile round bottom 96 well microtiter polystyrene plates (Corning Inc., Corning, N.Y.) by microdilution. Tizoxanide TIZ (deacetylated form of NTZ), denitro-NTZ (TIZ without 5-nitro group) and amoxanide AMIX (TIZ-ethylamine) were also tested. Bacteria were grown overnight and suspended in fresh TSB to an OD600 of 0.01 and 100 μl were dispensed into wells with the first well containing 200 μA NTZ and other antibiotics (DMSO control) were added to well one and serially diluted from 32 μg/ml. All compounds were tested in triplicate and plates were read visually or with a plate reader (Molecular Devices) at 8, 12 and at 24 h. MIC was determined as the first well in which no visible bacterial growth was noted relative to controls. Drug effects on aerobic growth were determined in 125 ml flasks containing 25 ml of TSB medium and following inoculation (detailed above), flasks were on a gyrorotary shaker (200 rpm) at 37° C. Final concentrations of NTZ were 0, 10 and 25 μg/ml and samples were removed at hourly intervals and absorbance determined at 600 nm.

[1] = test system: EAEC 042 (AAF/II fimbriae); test: Hemagglutination of sheep erythrocytes, EAEC 042; format: cell-based, Escherichia coli; details: EAEC 042 grown in MinA-G with 20 μg/ml NTZ; further: key: +++ = strong hemagglutination reaction; + weak; − no hemagglutination
Procedure: HA assays were performed in 96-well microplates as described in (1). Bacteria grown over night without shaking ([…]) were suspended in PBS and diluted to OD660 of […] was mixed with an equal volume of 3% (vol/vol) sheep erythrocyte suspension containing 1% mannose, except when type I fimbriae producing strains were assayed. In the latter, bacteria were grown statically in LB medium (with and without NTZ) for 48 h and HA was determined with guinea pig erythrocytes. HA reactions were incubated at 4° C. for […] HA was determined visually against controls receiving no NTZ. All assays were prepared in triplicate and repeated twice.

H. pylori = test: MIC testing by broth dilution, H. pylori; format: cell-based, Helicobacter pylori
In short: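 Helicobacter pylori was tested using a standard broth dilution method in 96 well microplates, each well holding a standard dilution of the organism in 100 microliters of Brain Heart Infusion. Compounds started at 32 μg/ml in 200 microliters in the first well and were serially diluted from 32 to 0.06. Wells were read visually at 24 h, and the MIC was the well with no growth.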

EAEC strain 042 = test: Quantitative biofilm assay, EAEC; format: cell-based, Escherichia coli
Procedure: A quantitative biofilm assay was used to determine the effect of NTZ on biofilm formation (41). Strain 042 was grown overnight at 37° C. with shaking and inoculated 1:100 in 200 μl culture medium in Costar 96-well, flat-bottom, polystyrene microtiter plates containing appropriate concentrations of NTZ. Plates were incubated statically at 37° C. in a humidified incubator. At 24 h, bacterial growth was measured by either transferring […] aliquots to another microtiter plate to determine turbidity or by diluting 100 μl aliquots 1:100 in 9.9 ml PBS for quantitative plate counts on LB medium. Bacterial counts in triplicate are reported as cfu/ml. Biofilm was visualized following staining with 0.5% crystal violet (41) and the absorbance was read at 570 nm using a microplate reader (Molecular Dynamics). All experiments were in triplicate and reported as mean and standard deviation.
Assays were initially performed with and without 25 μg/ml NTZ using five different growth media: DMEM, DMEM with 0.4% glucose, LB, LB with 0.4% glucose, and our chemically defined medium containing 1% glucose. E. coli DH5αt served as a negative control for biofilm formation. Assays were then run with increasing concentrations of NTZ (0, 5, 10, 15, 20, 25 μg/ml) both in the chemically defined medium and in DMEM with 0.4% glucose. […]

[2] = test system: PFOR (pyruvate ferredoxin oxidoreductase); test: Direct PFOR enzyme assay; format: biochemical

CC(=O)Oc1ccccc1C(=O)Nc1ncc([N+](=O)[O-])s1 [Nitazoxanide, 2-(acetyloxy)-N-(5-nitro-2-thiazolyl)benzamide, reference compound]
Attachment to catheter material (S. epidermidis 9142): inhibited attachment
MIC (MRSA; 2-amino-3,5-dinitrothiophene analogues table, read-out: MIC MRSA): 39.1 µM (≈ 12 µg/mL)
MIC (MRSA; Staphylococcus aureus, MRSA, broth dilution, Trypticase Soy, 24 h, read-out: MIC (μM) MRSA): 39.1 µM (≈ 12 µg/mL)
MIC (MRSA; Thiophene analogues table, read-out: MIC MRSA): 39.1 µM (≈ 12 µg/mL)
Effect on exponential growth rates (S. epidermidis; 10 μg/ml): little effect on exponential growth rates
Inhibition of growth in liquid culture under vigorous aeration (S. epidermidis; 25 μg/ml): significant inhibition
HA (sheep erythrocytes), bacterial OD660 0.5 [1]: −
HA (sheep erythrocytes), bacterial OD660 1.0 [1]: −
HA (sheep erythrocytes), bacterial OD660 1.5 [1]: +
MIC (H. pylori; 2-amino-3,5-dinitrothiophene analogues table, read-out: MIC H. pylori): 13.0 µM (≈ 3.99 µg/mL)
MIC (H. pylori; Helicobacter pylori, Furan analogues table, read-out: MIC H. pylori): 13 µM (≈ 3.99 µg/mL)
MIC (H. pylori; Helicobacter pylori, broth dilution, Brain Heart Infusion, 24 h, read-out: MIC (μM) H. pylori): 13 µM (≈ 3.99 µg/mL)
MIC (H. pylori; Thiophene analogues table, read-out: MIC H. pylori): 13.0 µM (≈ 3.99 µg/mL)
Inhibition of biofilm formation (EAEC strain 042; EAEC 042, MinA-G, 20 μg/ml): almost complete inhibition
IC50 (EAEC strain 042; Escherichia coli, EAEC 042, DMEM and MinA-G media, read-out: IC50 biofilm production): ~12 µg/mL (≈ 39.1 µM)
PFOR inhibition relative to nitazoxanide (=100) [2]: 100%
PFOR inhibition relative to nitazoxanide (=100) ([2]; * biphasic initial inhibition followed by uninhibited rate, ** caused some precipitant in extract): 100%
PFOR inhibition relative to nitazoxanide (=100) ([2]; Furan analogues table): 100%
PFOR inhibition relative to nitazoxanide (=100) ([2]; Thiophene analogues table): 100%
